This is an account of results in patent US7041690B2, “Inhibitors of HCV NS5B polymerase” (Pharmacia & Upjohn Company, LLC, priority 2002, dated 2006).

The target of one experiment is HCV NS5b RNA dependent RNA polymerase (Hepatitis C virus genotype 1a, UniProt P27958). Nature of the experiment: HCV NS5b RNA dependent RNA polymerase inhibition (scintillation proximity assay). The class given is biochemical.
Sequence of HCV NS5b RNA dependent RNA polymerase (P27958 2421-3011): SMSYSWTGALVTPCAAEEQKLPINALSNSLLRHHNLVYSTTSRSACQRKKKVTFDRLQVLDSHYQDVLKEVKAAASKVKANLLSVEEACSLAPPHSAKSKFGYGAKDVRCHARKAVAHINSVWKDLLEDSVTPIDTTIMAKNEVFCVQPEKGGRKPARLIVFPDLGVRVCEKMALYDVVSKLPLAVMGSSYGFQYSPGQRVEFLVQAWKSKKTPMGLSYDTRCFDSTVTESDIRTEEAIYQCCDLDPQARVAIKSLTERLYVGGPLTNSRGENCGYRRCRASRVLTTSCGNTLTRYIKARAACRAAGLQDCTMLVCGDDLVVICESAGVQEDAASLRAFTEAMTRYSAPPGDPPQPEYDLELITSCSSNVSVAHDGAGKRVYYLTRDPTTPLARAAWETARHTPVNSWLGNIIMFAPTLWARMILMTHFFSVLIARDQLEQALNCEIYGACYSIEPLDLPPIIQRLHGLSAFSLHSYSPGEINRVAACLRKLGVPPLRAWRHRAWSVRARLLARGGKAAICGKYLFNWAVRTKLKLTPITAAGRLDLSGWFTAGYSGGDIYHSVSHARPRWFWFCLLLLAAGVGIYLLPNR
Conditions: not given
As for the experimental part: Compounds of the present invention are evaluated for inhibition of HCV NS5b RNA dependent RNA polymerase activity in assays comprised of a suitable buffer (e.g. 20 mM Tris-HCl pH 7.6), primed or unprimed RNA templates, GTP, ATP, CTP, and UTP, MnCl2 or MgCl2, and reducing agent such as 10 mM dithiothreitol or 2-mercaptoethanol. The assay buffer may contain salts such as ammonium acetate, KCl, or NaCl, and nonionic or zwitterionic detergents such as Tween or CHAPS. The incorporation of nucleotides into the complementary RNA strand may be monitored by the incorporation of radiolabeled NTP (e.g. ^3H labeled GTP). Suitable RNA templates for de novo initiation in the presence of 20–50 μM GTP or ATP are the homopolymers poly rC and poly rU, respectively. Heteropolymer RNA templates with 1–3 cytidine (C) bases or 1–3 uridine (U) bases at the 3′ terminus of the template may also be used for de novo initiation. Primed RNA templates such as poly rC primed with oligo rG or oligo dG, and poly rA primed with oligo rU may also be used to detect polymerase activity. The primers may be any length greater than 10 bases. A biotin residue may be added to the 5′ end of the template or the 5′ end of the primer to capture the template and the newly synthesized, complementary strand on avidin coated spheres. One embodiment of this technology consists of a mixture of NS5b polymerase, a poly rC RNA template primed with 5′ biotinylated oligo rG, 20 mM Tris HCl pH 7.6, 100 mM ammonium acetate, 10 mM dithiothreitol, 2 mM CHAPS, 1 mM MgCl2, and 150–200 nM ^3H labeled GTP. Test compounds (inhibitors) may be incorporated in the reaction mixture with up to 10% DMSO. The reaction is run for various times (1–180 minutes) at 22–37° C., and stopped by the addition of 10–140 mM EDTA. Scintillation Proximity Assay avidin-coated beads (Amersham Pharmacia Biotech) are added to capture the ds RNA product; or the reaction mixtures may be transferred to avidin coated Flash Plates (Perkin Elmer Life Sciences). The incorporation of radiolabeled GTP into the complementary strand is measured in 96, 384, or 1536 well plates in scintillation counters such as the Wallac Microbeta and Packard TopCount.
On to `Cc1ccccc1-c1ccc(/C=C(\NC(=O)c2ccccc2)C(=O)O)o1` [Compound 2], for which the IC50 is less than 10 µM.

The experiment is the same for the next values; noted with them: concentration for 50% inhibition, class symbols; read-out: NS5B Inhibitory Activity.
Regarding `O=C(O)/C(=C/c1cccc(Oc2ccccc2Cl)c1)NC(=O)c1ccccc1` [Compound 1], the IC50 is less than 10 µM. On to `Cc1ccc(COc2ccc(/C=C(\NC(=O)c3ccccc3)C(=O)O)cc2)cc1` [Compound 3], for which the IC50 fell in the range of 11 to 30 µM. Turning to `O=C(O)/C(=C/c1ccc(-c2ccc3c(c2)OCO3)o1)NC(=O)c1ccccc1` [Compound 4], the IC50 is less than 10 µM. Take `O=C(O)/C(=C/c1ccc(-c2cc3ccccc3s2)o1)NC(=O)c1ccccc1` [Compound 5]: the IC50 was in the range of 11 to 30 µM.

For `O=C(O)/C(=C/c1ccc(Nc2ccccc2Cl)cc1)NC(=O)c1ccccc1` [Compound 6], the IC50 lay in the range of 11 to 30 µM. As for `CCS(=O)(=O)c1ccc(-c2ccc(/C=C(\NC(=O)c3ccccc3)C(=O)O)o2)cc1` [Compound 7], the IC50 was greater than 30 µM. For the compound `O=C(O)/C(=C/c1ccc(F)c(-c2ccccc2Cl)c1)NC(=O)c1ccccc1` [Compound 8], the IC50 was less than 10 µM. As for `O=C(O)/C(=C/c1csc(-c2ccccc2Cl)n1)NC(=O)c1ccccc1` [Compound 9], the IC50 was less than 10 µM. Turning to `O=C(O)/C(=C/c1ncc(-c2ccccc2)o1)NC(=O)c1ccccc1` [Compound 10], the IC50 was less than 10 µM. As to `O=C(O)/C(=C/c1cccc(-c2cccnc2)c1)NC(=O)c1ccccc1` [Compound 11], the IC50 was greater than 30 µM.

For the compound `O=C(O)/C(=C/c1cnc(-c2ccccc2Cl)[nH]1)NC(=O)c1ccccc1` [Compound 12], the IC50 is greater than 30 µM. For the compound `O=C(O)/C(=C/c1ccc(Oc2ccccc2Br)cc1)NC(=O)c1ccccc1` [Compound 13], the IC50 was less than 10 µM.
